Data: US10829478B2, “5-[3-[piperazin-1-yl]-3-oxo-propyl]-imidazolidine-2,4-dione derivatives as ADAMTS 4 and 5 inhibitors for treating e.g. osteoarthritis” (Galapagos NV, priority 2016, dated 2020)
Like-named read-outs stand apart in the source and are kept apart here.

Columns and labels:
[1] = target: human TACE (Homo sapiens (Human), UniProt P78536); assay: biochemical
Protocol: Finally, the fluorescence is read on the Envision (Perkin Elmer) after an incubation of 75 min at room temperature (Excitation 485 nm, Emission 530).

[2] = target: human ADAMTS4 (Homo sapiens (Human), UniProt O75173); assay: hADAMTS-4 TBIS-1 cleavage assay, Protocol 2; assay type: biochemical
Sequence of human ADAMTS4 (O75173 213-837): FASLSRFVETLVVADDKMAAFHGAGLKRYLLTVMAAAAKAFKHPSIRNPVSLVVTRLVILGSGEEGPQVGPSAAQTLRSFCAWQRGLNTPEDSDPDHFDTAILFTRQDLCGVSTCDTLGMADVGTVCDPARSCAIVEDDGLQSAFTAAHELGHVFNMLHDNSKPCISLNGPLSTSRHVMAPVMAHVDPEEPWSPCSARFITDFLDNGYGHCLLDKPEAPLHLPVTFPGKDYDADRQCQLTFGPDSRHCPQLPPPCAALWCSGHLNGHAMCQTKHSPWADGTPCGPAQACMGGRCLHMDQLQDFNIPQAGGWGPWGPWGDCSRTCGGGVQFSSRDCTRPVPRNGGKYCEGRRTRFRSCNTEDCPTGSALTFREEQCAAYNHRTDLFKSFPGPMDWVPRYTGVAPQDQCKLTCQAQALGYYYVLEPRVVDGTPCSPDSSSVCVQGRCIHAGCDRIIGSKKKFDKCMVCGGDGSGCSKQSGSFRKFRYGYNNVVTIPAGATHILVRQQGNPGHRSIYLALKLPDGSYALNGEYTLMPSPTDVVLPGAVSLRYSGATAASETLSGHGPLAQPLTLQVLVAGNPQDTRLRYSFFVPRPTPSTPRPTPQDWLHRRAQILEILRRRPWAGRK

[3] = target: human ADAMTS6 (Homo sapiens (Human), UniProt Q9UKP5); assay: hADAMTS-6 fluorescent based protease assay (520 MMP FRET substrate XII); assay type: biochemical; conditions: 37° C. for 2 h; read-out: hADAMTS-6 potency IC50
Sequence of human ADAMTS6 (Q9UKP5 other isoform, or with tags, fused parts or gaps): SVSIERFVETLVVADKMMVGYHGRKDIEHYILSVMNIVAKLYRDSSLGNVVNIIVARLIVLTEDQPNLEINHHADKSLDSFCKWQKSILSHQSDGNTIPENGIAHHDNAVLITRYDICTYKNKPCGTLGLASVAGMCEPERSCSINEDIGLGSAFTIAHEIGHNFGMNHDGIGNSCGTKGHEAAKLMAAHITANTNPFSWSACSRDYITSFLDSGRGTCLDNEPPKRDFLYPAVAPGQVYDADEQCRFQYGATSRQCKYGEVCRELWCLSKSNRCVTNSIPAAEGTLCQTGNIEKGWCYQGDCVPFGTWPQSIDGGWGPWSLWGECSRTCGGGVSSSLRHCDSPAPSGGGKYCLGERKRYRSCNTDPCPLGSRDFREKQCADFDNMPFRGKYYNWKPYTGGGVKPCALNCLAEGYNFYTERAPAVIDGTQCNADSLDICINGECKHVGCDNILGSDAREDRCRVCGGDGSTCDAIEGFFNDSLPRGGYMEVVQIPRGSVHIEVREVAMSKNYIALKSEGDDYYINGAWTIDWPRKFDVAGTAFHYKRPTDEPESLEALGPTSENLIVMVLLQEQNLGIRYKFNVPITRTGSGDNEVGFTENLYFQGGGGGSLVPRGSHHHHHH
Protocol: The IC50 value for test compounds can be determined in a fluorescent based protease assay.
The substrate contains sequence Arg-Pro-Lys-Pro-Tyr-Ala-Nva-Trp-Met-Lys (SEQ ID NO: 7) with attached a fluorescent probe and a quencher. Without ADAMTS6, the emission of the probe is quenched. If the substrate is cleaved by ADAMTS6, the emission of the probe is not quenched anymore. Inhibition of ADAMTS6 activity, will result in a decrease of the signal.
To perform the assay, 4 μL of a dilution series of compound in water, starting from 20 μM highest concentration, ⅕ dilution, is added to the wells. 2 ng ADAMTS6 enzyme is diluted in 25 mM Tris pH8.0, 0.05% CHAPS, 2.5 mM CaCl2 in a total volume of 26 μL (final concentration 0.73 nM). The reaction is started by addition of 10 μL of 1 μM 520 MMP FRET Substrate XII (final concentration, diluted in same buffer as described above) and the mixture is incubated at 37° C. for 2 h. […] After this incubation, cleavage of the substrate is measured using the Envision (Perkin Elmer, exc485/em530).

[4] = target: human MMP13 (Homo sapiens (Human), UniProt P45452); assay: hMMP13 assay, Protocol 1 (390 MMP FRET Substrate I, Chemicon enzyme); assay type: biochemical; conditions: Protocol 1, human MMP13 (Chemicon), read-out: hMMP-13 potency IC50
Protocol: Human MMP13 is preactivated by incubated the enzyme in the same buffer complemented with 1 mM freshly prepared p-Aminophenylmercuric acetate (AMPA) for 1 h at 37° C.

[5] = target: human ADAMTS-5 (Homo sapiens (Human), UniProt Q9UNA0); assay: hADAMTS-5 TBIS-1 cleavage assay, Protocol 3; assay type: biochemical; conditions: 90 min at 37° C., read-out: hADAMTS-5 potency IC50
Sequence of human ADAMTS-5 (Q9UNA0 262-930): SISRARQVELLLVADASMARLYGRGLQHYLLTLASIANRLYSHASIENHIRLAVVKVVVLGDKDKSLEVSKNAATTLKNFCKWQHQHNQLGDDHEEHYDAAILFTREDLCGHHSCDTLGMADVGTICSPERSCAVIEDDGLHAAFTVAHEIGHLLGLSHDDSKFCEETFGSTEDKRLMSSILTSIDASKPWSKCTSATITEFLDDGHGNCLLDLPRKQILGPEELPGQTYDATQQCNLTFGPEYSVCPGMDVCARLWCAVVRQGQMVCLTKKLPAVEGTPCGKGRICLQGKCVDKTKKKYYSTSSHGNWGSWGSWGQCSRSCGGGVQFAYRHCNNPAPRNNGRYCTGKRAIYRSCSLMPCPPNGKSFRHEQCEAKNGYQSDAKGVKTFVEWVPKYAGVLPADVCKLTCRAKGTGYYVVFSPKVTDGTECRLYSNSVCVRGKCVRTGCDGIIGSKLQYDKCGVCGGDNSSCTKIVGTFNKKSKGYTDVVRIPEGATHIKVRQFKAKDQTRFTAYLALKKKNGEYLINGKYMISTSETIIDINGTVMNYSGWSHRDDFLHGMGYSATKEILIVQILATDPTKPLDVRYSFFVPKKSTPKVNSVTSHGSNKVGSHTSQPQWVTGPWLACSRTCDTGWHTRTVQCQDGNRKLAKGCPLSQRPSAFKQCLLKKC
Protocol: The reaction is initiated by adding to the assay plate TBIS-1 (10 μL, 4.5 μM, Anaspec) in the same buffer.
Finally, the fluorescence is read on the Envision (Perkin Elmer) after an incubation of 90 min at 37° C. (Excitation 485 nm, emission 530).

[6] = Protocol 2, 180 min at 37° C., read-out: ADAMTS4 potency IC50

Sequence of human TACE (P78536 215-671): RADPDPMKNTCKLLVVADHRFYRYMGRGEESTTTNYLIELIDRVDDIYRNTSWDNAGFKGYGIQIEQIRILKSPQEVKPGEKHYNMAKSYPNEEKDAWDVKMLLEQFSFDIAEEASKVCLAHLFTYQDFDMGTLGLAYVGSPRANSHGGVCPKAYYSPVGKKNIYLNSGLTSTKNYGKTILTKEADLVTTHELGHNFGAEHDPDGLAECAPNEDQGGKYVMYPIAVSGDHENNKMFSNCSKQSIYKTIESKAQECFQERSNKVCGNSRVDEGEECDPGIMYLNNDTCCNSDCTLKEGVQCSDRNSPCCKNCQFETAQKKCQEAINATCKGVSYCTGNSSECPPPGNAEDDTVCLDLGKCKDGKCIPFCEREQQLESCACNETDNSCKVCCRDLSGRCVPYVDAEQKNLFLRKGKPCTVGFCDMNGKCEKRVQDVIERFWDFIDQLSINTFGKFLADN

IC50 [1] [nM]	IC50 [3] [nM]	IC50 [4] [nM]	IC50 [5] [nM]	IC50 [2, 6] [nM]	Structure (SMILES)	IC50 [2] [nM]
> 100	0.001 to 25		> 100		COc1cc(Cl)c(C)cc1N1CCN(C(=O)CC[C@@]2(C)NC(=O)NC2=O)C[C@@H]1C [Cpd 95, (5R)-5-[3-[(3S)-4-(4-chloro-2-methoxy-5-methyl-phenyl)-3-methyl-piperazin-1-yl]-3-oxo-propyl]-5-methyl-imidazolidine-2,4-dione]	
	> 100		> 100		COc1cc(N2CCN(C(=O)CC[C@H]3NC(=O)NC3=O)C[C@H]2C)cc(F)c1F [Cpd 127, (5R)-5-[3-[(3R)-4-(3,4-difluoro-5-methoxy-phenyl)-3-methyl-piperazin-1-yl]-3-oxo-propyl]imidazolidine-2,4-dione]	
	> 100		> 100		COc1ccc(C)c(N2CCN(C(=O)CC[C@H]3NC(=O)NC3=O)CC2)c1 [Cpd 136, (5R)-5-[3-[4-(5-methoxy-2-methyl-phenyl)piperazin-1-yl]-3-oxo-propyl]imidazolidine-2,4-dione]	
	> 100		> 100		COc1cccc(N2CCN(C(=O)CC[C@H]3NC(=O)NC3=O)CC2)c1C [Cpd 137, (5R)-5-[3-[4-(3-methoxy-2-methyl-phenyl)piperazin-1-yl]-3-oxo-propyl]imidazolidine-2,4-dione]	
	> 100		> 100		COc1ccc(C)c(N2CCN(C(=O)CC[C@H]3NC(=O)NC3=O)C[C@@H]2C)c1 [Cpd 140, (5R)-5-[3-[(3 S)-4-(5-methoxy-2-methyl-phenyl)-3-methyl-piperazin-1-yl]-3-oxo-propyl]imidazolidine-2,4-dione]	
> 100	50 to 100		> 100		CCOc1cc(N2CCN(C(=O)CC[C@H]3NC(=O)NC3=O)CC2)cc(OC)c1Cl [Cpd 149, (5R)-5-[3-[4-(4-chloro-3-ethoxy-5-methoxy-phenyl)piperazin-1-yl]-3-oxo-propyl]imidazolidine-2,4-dione]	
> 100	25 to 50		> 100		COc1cc(N2CCN(C(=O)CC[C@H]3NC(=O)NC3=O)CC2)cc(OC)c1F [Cpd 151, (5R)-5-[3-[4-(4-fluoro-3,5-dimethoxy-phenyl)piperazin-1-yl]-3-oxo-propyl]imidazolidine-2,4-dione]	

The next lines start with the compound.

Structure (SMILES)	IC50 [1] [nM]	IC50 [3] [nM]	IC50 [4] [nM]	IC50 [5] [nM]	IC50 [2, 6] [nM]	IC50 [2] [nM]
COCC1(CC(C)C(=O)N2CCN(c3cc(F)c(F)c(OC)c3)[C@@H](C)C2)NC(=O)NC1=O (mixture of isomers) [Cpd 46, 5-[3-[(3S)-4-(3,4-difluoro-5-methoxy-phenyl)-3-methyl-piperazin-1-yl]-2-methyl-3-oxo-propyl]-5-(methoxymethyl)imidazolidine-2,4-dione]	> 100	0.001 to 25	> 100	25 to 50		25 to 50
COc1cc(N2CCN(C(=O)[C@@H](C)C[C@@]3(c4ccccn4)NC(=O)NC3=O)C[C@@H]2C)cc(F)c1F (stereo in doubt) [Cpd 49, 5-[3-[(3 S)-4-(3,4-difluoro-5-methoxy-phenyl)-3-methyl-piperazin-1-yl]-2-methyl-3-oxo-propyl]-5-(2-pyridyl)imidazolidine-2,4-dione]	> 100	0.001 to 25		25 to 50		50 to 100
COc1cc(F)cc(N2CCN(C(=O)CC[C@@]3(C)NC(=O)NC3=O)CC2)c1 [Cpd 19, (R)-5-[3-[4-(3-fluoro-5-methoxy-phenyl)piperazin-1-yl]-3-oxo-propyl]-5-methyl-imidazolidine-2,4-dione]	> 100	50 to 100	> 100	> 100	> 100	
COc1cc(N2CCN(C(=O)CC[C@@]3(C)NC(=O)NC3=O)CC2)cc(F)c1F [Cpd 20, (R)-5-[3-[4-(3,4-difluoro-5-methoxy-phenyl)piperazin-1-yl]-3-oxo-propyl]-5-methyl-imidazolidine-2,4-dione]	> 100	0.001 to 25	> 100	> 100	> 100	
COc1cc(N2CCN(C(=O)CCC3(C)NC(=O)NC3=O)C[C@@H]2C)cc(F)c1F (stereo partly drawn) [Cpd 22, 5-[3-[(3 S)-4-(3,4-difluoro-5-methoxy-phenyl)-3-methyl-piperazin-1-yl]-3-oxo-propyl]-5-methyl-imidazolidine-2,4-dione]	> 100	0.001 to 25	> 100	> 100	> 100	
COc1cncc(N2CCN(C(=O)CCC3(C4CC4)NC(=O)NC3=O)C[C@@H]2C)c1 (stereo partly drawn) [Cpd 60, 5-cyclopropyl-5-[3-[(3S)-4-(5-methoxy-3-pyridyl)-3-methyl-piperazin-1-yl]-3-oxo-propyl]imidazolidine-2,4-dione]	> 100	> 100		> 100	> 100	
COc1cc(N2CCN(C(=O)CC[C@@]3(C)NC(=O)NC3=O)C[C@@H]2C)c(C)cc1F [Cpd 66, (5R)-5-[3-[(3S)-4-(4-fluoro-5-methoxy-2-methyl-phenyl)-3-methyl-piperazin-1-yl]-3-oxo-propyl]-5-methyl-imidazolidine-2,4-dione]	> 100	50 to 100		> 100		
COc1c(Cl)cccc1N1CCN(C(=O)CC[C@@]2(C)NC(=O)NC2=O)C[C@@H]1C [Cpd 69, (5R)-5-[3-[(3 S)-4-(3-chloro-2-methoxy-phenyl)-3-methyl-piperazin-1-yl]-3-oxo-propyl]-5-methyl-imidazolidine-2,4-dione]	> 100	> 100		> 100		
CCc1cccc(N2CCN(C(=O)CC[C@@]3(C)NC(=O)NC3=O)CC2)c1 [Cpd 70, (5R)-5-[3-[4-(3-ethylphenyl)piperazin-1-yl]-3-oxo-propyl]-5-methyl-imidazolidine-2,4-dione]	> 100	> 100		> 100		
COc1cc(Cl)ccc1N1CCN(C(=O)CC[C@@]2(C)NC(=O)NC2=O)CC1 [Cpd 73, (5R)-5-[3-[4-(4-chloro-2-methoxy-phenyl)piperazin-1-yl]-3-oxo-propyl]-5-methyl-imidazolidine-2,4-dione]	> 100	> 100		> 100		
COc1cc(Cl)ccc1N1CCN(C(=O)CC[C@@]2(C)NC(=O)NC2=O)C[C@@H]1C [Cpd 76, (5R)-5-[3-[(3 S)-4-(4-chloro-2-methoxy-phenyl)-3-methyl-piperazin-1-yl]-3-oxo-propyl]-5-methyl-imidazolidine-2,4-dione]	> 100	> 100		> 100		
COc1cc(F)ccc1N1CCN(C(=O)CC[C@@]2(C)NC(=O)NC2=O)CC1 [Cpd 78, (5R)-5-[3-[4-(4-fluoro-2-methoxy-phenyl)piperazin-1-yl]-3-oxo-propyl]-5-methyl-imidazolidine-2,4-dione]	> 100	> 100		> 100		
COc1ccc(Cl)cc1N1CCN(C(=O)CC[C@@]2(C)NC(=O)NC2=O)C[C@@H]1C [Cpd 91, (5R)-5-[3-[(3 S)-4-(5-chloro-2-methoxy-phenyl)-3-methyl-piperazin-1-yl]-3-oxo-propyl]-5-methyl-imidazolidine-2,4-dione]	> 100	> 100		> 100		
COc1cc(Cl)c(Cl)cc1N1CCN(C(=O)CC[C@@]2(C)NC(=O)NC2=O)CC1 [Cpd 94, (5R)-5-[3-[4-(4,5-dichloro-2-methoxy-phenyl)piperazin-1-yl]-3-oxo-propyl]-5-methyl-imidazolidine-2,4-dione]	> 100	0.001 to 25		> 100		
